From ChEMBL document CHEMBL3774389, “C-3 benzoic acid derivatives of C-3 deoxybetulinic acid and deoxybetulin as HIV-1 maturation inhibitors” (Bioorg Med Chem, 2016) come the findings set out here.

For data set [1], the system named is Human immunodeficiency virus 1. Kind of data set: Antiviral activity against wild type HIV1 NLRepRlucP373S infected in human MT2 cells after 4 to 5 days by luciferase report gene based multiple cycle drug susceptibility assay. Particulars: Human immunodeficiency virus 1, NLRepRlucP373S. The format is functional, organism-based.
Data set [2] is described as follows: Cytotoxicity against human MT2 cells assessed as cell viability by redox dye assay. In kind it is cell-based.
The subject of data set [3] is Human immunodeficiency virus 1. Kind of data set: Antiviral activity against HIV1 containing gag V370A mutant infected in human MT2 cells after 4 to 5 days by luciferase report gene based multiple cycle drug susceptibility assay. In kind it is functional, organism-based. The conditions noted are these: Human immunodeficiency virus 1, MT2.

Turning to `C=C(C)[C@@H]1CC[C@]2(C(=O)O)CC[C@]3(C)[C@H](CC[C@@H]4[C@@]5(C)CC=C(c6ccc(C(=O)NC)cc6)C(C)(C)[C@@H]5CC[C@]43C)[C@@H]12`, the EC50 (commonly the concentration that produces a half-maximal response) in data set [1] is 1.6 µM. Also, in data set [2], the CC50 (commonly the concentration at which the toxic effect on the cells reaches its halfway point) worked out at 22.6 µM.

`C=C(C)[C@@H]1CC[C@]2(C(=O)O)CC[C@]3(C)[C@H](CC[C@@H]4[C@@]5(C)CC=C(c6ccc(/C=C/C(=O)O)cc6)C(C)(C)[C@@H]5CC[C@]43C)[C@@H]12`: in data set [1], a half-maximal response (EC50) required 0.734 µM. In addition, in data set [2], the CC50 is above 8 µM.

As to `C=C(C)[C@@H]1CC[C@]2(C(=O)O)CC[C@]3(C)[C@H](CC[C@@H]4[C@@]5(C)CC=C(c6ccc(C7(C(=O)O)CC7)cc6)C(C)(C)[C@@H]5CC[C@]43C)[C@@H]12`, the EC50 in data set [1] came out at 0.215 µM; in data set [3], 0.633 µM. In addition, the CC50 in data set [2] is above 8 µM.

Compound `C=C(C)[C@@H]1CC[C@]2(C(=O)O)CC[C@]3(C)[C@H](CC[C@@H]4[C@@]5(C)CC=C(c6cccc(CCC(=O)O)c6)C(C)(C)[C@@H]5CC[C@]43C)[C@@H]12` registered an EC50 in data set [1] of 0.571 µM. Besides, the CC50 in data set [2] is 1.83 µM.

With `C=C(C)[C@@H]1CC[C@]2(C(=O)O)CC[C@]3(C)[C@H](CC[C@@H]4[C@@]5(C)CC=C(c6ccccc6CCC(=O)O)C(C)(C)[C@@H]5CC[C@]43C)[C@@H]12`, in data set [1], a half-maximal response (EC50) required 3.2 µM. In addition, the CC50 in data set [2] was 5.03 µM.

Turning to `C=C(C)[C@@H]1CC[C@]2(C(=O)O)CC[C@]3(C)[C@H](CC[C@@H]4[C@@]5(C)CC=C(c6ccc(C(=O)O)s6)C(C)(C)[C@@H]5CC[C@]43C)[C@@H]12`, the EC50 in data set [1] was 0.059 µM; in data set [3], above 2 µM. Moreover, in data set [2], the CC50 came out at 0.79 µM.

In data set [1], `C=C(C)[C@@H]1CC[C@]2(C(=O)O)CC[C@]3(C)[C@H](CC[C@@H]4[C@@]5(C)CC=C(c6ccc(-c7cnc8ccccc8c7C(=O)O)cc6)C(C)(C)[C@@H]5CC[C@]43C)[C@@H]12` came in with an EC50 of 3.6 µM. In data set [2], the CC50 was found to be 15.9 µM.

For `C=C(C)[C@@H]1CC[C@]2(C(=O)O)CC[C@]3(C)[C@H](CC[C@@H]4[C@@]5(C)CC=C(c6ccc(S(C)(=O)=O)cc6)C(C)(C)[C@@H]5CC[C@]43C)[C@@H]12`, the EC50 in data set [1] came out at 2.52 µM. The CC50 in data set [2] came to 9.72 µM.

`C=C(C)[C@@H]1CC[C@]2(C(=O)O)CC[C@]3(C)[C@H](CC[C@@H]4[C@@]5(C)CC=C(c6cccc(NS(C)(=O)=O)c6)C(C)(C)[C@@H]5CC[C@]43C)[C@@H]12`: the EC50 in data set [1] is 2.13 µM. Further, the CC50 in data set [2] was 12.7 µM.

Take `C=C(C)[C@@H]1CC[C@]2(C(=O)O)CC[C@]3(C)[C@H](CC[C@@H]4[C@@]5(C)CC=C(c6cccc(C(=O)O)c6)C(C)(C)[C@@H]5CC[C@]43C)[C@@H]12`: the EC50 in data set [1] was above 8 µM. Also, the CC50 in data set [2] was 13.8 µM.

`C=C(C)[C@@H]1CC[C@]2(C(=O)O)CC[C@]3(C)[C@H](CC[C@@H]4[C@@]5(C)CC=C(c6cccc(-c7nn[nH]n7)c6)C(C)(C)[C@@H]5CC[C@]43C)[C@@H]12` returned an EC50 in data set [1] above 8 µM. Moreover, the CC50 in data set [2] stood at 10.5 µM.

Consider `C=C(C)[C@@H]1CC[C@]2(C(=O)O)CC[C@]3(C)[C@H](CC[C@@H]4[C@@]5(C)CC=C(c6cccc(S(=O)(=O)NC)c6)C(C)(C)[C@@H]5CC[C@]43C)[C@@H]12`, for which the EC50 in data set [1] was found to be 1.23 µM. Moreover, the CC50 in data set [2] was found to be 13 µM.

In data set [1], `C=C(C)[C@@H]1CC[C@]2(C(=O)O)CC[C@]3(C)[C@H](CC[C@@H]4[C@@]5(C)CC=C(c6ccc(CCC(=O)O)cc6)C(C)(C)[C@@H]5CC[C@]43C)[C@@H]12` showed an EC50 of 0.682 µM. The CC50 in data set [2] amounted to 6.55 µM.

Turning to `C=C(C)[C@@H]1CC[C@]2(C(=O)O)CC[C@]3(C)[C@H](CC[C@@H]4[C@@]5(C)CC=C(c6ccc(C#N)cc6)C(C)(C)[C@@H]5CC[C@]43C)[C@@H]12`, in data set [1], the EC50 is above 1.6 µM. Moreover, the CC50 in data set [2] turned out to be 4.45 µM.
